# Assay results taken from patent US11339171B2, “MDM2 inhibitors” (Gan & Lee Pharmaceuticals, priority 2017, dated 2022).
# Values joined by “and” are separate entries in the source; they are usually repeats but may differ in a detail not shown here. Equal entries are not always repeated. Where two headings read alike, the source gives them in different places.
# What was measured:
# MDM2 = biological target: T1, MDM2 (Homo sapiens, UniProt Q00987); experiment: Inhibition test of MDM2-P53 (GST-MDM2, Biotin-P53, Anti-GST-Tb, SA-XL665); format: binding
# T1 construct: made in house
# T1 sequence (Q00987 whole entry): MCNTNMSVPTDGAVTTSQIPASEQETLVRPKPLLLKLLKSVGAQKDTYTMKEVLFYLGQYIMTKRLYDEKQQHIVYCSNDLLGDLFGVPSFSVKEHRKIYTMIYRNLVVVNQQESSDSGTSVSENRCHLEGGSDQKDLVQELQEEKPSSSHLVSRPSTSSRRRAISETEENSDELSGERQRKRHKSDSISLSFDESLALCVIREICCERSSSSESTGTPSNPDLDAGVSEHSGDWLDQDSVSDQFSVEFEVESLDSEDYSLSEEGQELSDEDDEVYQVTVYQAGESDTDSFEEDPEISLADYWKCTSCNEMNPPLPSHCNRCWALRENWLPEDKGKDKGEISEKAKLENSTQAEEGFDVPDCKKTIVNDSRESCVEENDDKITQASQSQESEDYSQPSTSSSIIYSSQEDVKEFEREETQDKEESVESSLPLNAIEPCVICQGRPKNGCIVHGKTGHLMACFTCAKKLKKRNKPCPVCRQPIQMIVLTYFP
# How it was run: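 Compounds, serially diluted 5-fold (twelve concentrations), were shaken for 90 min at 25° C with a mix of GST-MDM2 (4 nM final), Biotin-P53, anti-GST-Tb and SA-XL665. Buffer: 1×PBS, 0.1% BSA, 5 mM DTT, 1 mM AEBSF; signal read on a microplate reader.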
# [1] = Pharmacokinetics in ICR mice after intravenous and intragastric administration; format: in vivo; conditions: for Vd: read-out: Vz; for MRT last: read-out: MRT(0-t); for MRT inf: read-out: MRT(0-∞)
# How it was run: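 Single-dose mouse PK study: i.v. 2 mg/kg and intragastric 5 mg/kg to fasted male ICR mice, three animals per arm. Exposure and disposition parameters (Cmax, Tmax, AUC, t1/2, F, CL, Vz) came from LC-MS/MS plasma levels.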
# [2] = test system: human osteosarcoma cell line SJSA-1; experiment: Inhibition of proliferation of human osteosarcoma cell line SJSA-1 (DAPI staining, In Cell Analyzer); conditions: Homo sapiens, SJSA-1, 72 h, read-out: IC50 (nM), inhibitory activity on proliferation of human osteosarcoma cell line SJSA-1, SJSA-1, incubated 72 h
# [3] = ICR mice, IV 2 mg/kg, individual animal, 2 mg/kg
# [4] = ICR mice, PO 5 mg/kg, individual animal, 5 mg/kg
# [5] = male, ICR, mouse, plasma, iv, 2 mg/kg, ICR mice, IV 2 mg/kg, mean of 3 animals
# [6] = male, ICR, mouse, plasma, iv, 2 mg/kg, ICR mice, IV 2 mg/kg, mean of 3 animals, read-out: AUC(0-t)
# [7] = male, ICR, mouse, plasma, iv, 2 mg/kg, ICR mice, IV 2 mg/kg, mean of 3 animals, read-out: Cmax
# [8] = male, ICR, mouse, plasma, iv, 2 mg/kg, ICR mice, IV 2 mg/kg, mean of 3 animals, read-out: Tmax
# [9] = male, ICR, mouse, plasma, iv, 2 mg/kg, ICR mice, IV 2 mg/kg, mean of 3 animals, read-out: t1/2 (converted)
# [10] = male, ICR, mouse, plasma, po, 5 mg/kg, ICR mice, PO 5 mg/kg, individual animal
# [11] = male, ICR, mouse, plasma, po, 5 mg/kg, ICR mice, PO 5 mg/kg, mean of 3 animals
# [12] = male, ICR, mouse, plasma, po, 5 mg/kg, ICR mice, PO 5 mg/kg, mean of 3 animals, read-out: AUC(0-t)
# [13] = male, ICR, mouse, plasma, po, 5 mg/kg, ICR mice, PO 5 mg/kg, mean of 3 animals, read-out: Cmax
# [14] = male, ICR, mouse, plasma, po, 5 mg/kg, ICR mice, PO 5 mg/kg, mean of 3 animals, read-out: Tmax
# [15] = male, ICR, mouse, plasma, po, 5 mg/kg, ICR mice, PO 5 mg/kg, mean of 3 animals, read-out: t1/2 (converted)
# [16] = male, ICR, mouse, plasma, po, 5 mg/kg, oral intragastric administration 5 mg/kg, read-out: AUC0-t
# [17] = ICR mice, IV 2 mg/kg, individual animals 301-303, 2 mg/kg
# [18] = ICR mice, PO 5 mg/kg, individual animals 401-403, 5 mg/kg
# [19] = male, ICR, mouse, plasma, iv, 2 mg/kg, ICR mice, IV 2 mg/kg, individual animals 301-303
# [20] = male, ICR, mouse, plasma, po, 5 mg/kg, ICR mice, PO 5 mg/kg, individual animals 401-403
smiles,measurement,setting,value
"CCOc1cc(OC)c(-c2nc3c(n2C(C)C)[C@@]2(C(=O)Nc4cc(Cl)ccc42)N(c2cc(Cl)cnc2C)C3=O)cn1 [Example S-96, (S)-6-chloro-5′-(5-chloro-2-methylpyridin-3-yl)-2′-(6-ethoxy-4-methoxypyridin-3-yl)-3′-isopropyl-3′H-spiro[dihydroindole-3,4′-pyrrolo[3,4-d]imidazole]-2,6′(5′H)-dione]",IC50,MDM2,1.04 nM
same,AUC(0-t),[1]; [3],3109.78 ng·h/mL and 3206.41 ng·h/mL and 6719.85 ng·h/mL
same,AUC(0-∞),[1]; [3],3157.25 ng·h/mL and 3250.65 ng·h/mL and 6815.93 ng·h/mL
same,CL,[1]; [3],10.56 mL/min/kg and 10.25 mL/min/kg and 4.89 mL/min/kg
same,Cmax,[1]; [3],3353.43 ng/mL and 3438.41 ng/mL
same,MRT(0-t),[1]; [3],0.90 h and 2.62 h
same,MRT(0-∞),[1]; [3],1.00 h and 0.99 h and 2.99 h
same,Vz,[1]; [3],0.95 L/kg and 1.42 L/kg
same,t1/2,[1]; [3],0.93 h and 1.07 h and 3.36 h
same,AUC(0-t),[1]; [4],6327.28 ng·h/mL and 6993.90 ng·h/mL and 13010.63 ng·h/mL
same,AUC(0-∞),[1]; [4],6705.00 ng·h/mL and 7471.54 ng·h/mL and 15115.19 ng·h/mL
same,Cmax,[1]; [4],3921.65 ng/mL and 2400.19 ng/mL and 5236.64 ng/mL
same,MRT(0-t),[1]; [4],2.42 h and 2.30 h
same,MRT(0-∞),[1]; [4],2.97 h and 3.61 h
same,Tmax,[1]; [4],0.50 h
same,t1/2,[1]; [4],2.06 h and 2.58 h
same,Cmax,"[1]; male, ICR, mouse, plasma, iv, 2 mg/kg, ICR mice, IV 2 mg/kg, individual animal, read-out: Cmax",2980 ng/mL
same,Tmax,"[1]; male, ICR, mouse, plasma, iv, 2 mg/kg, ICR mice, IV 2 mg/kg, individual animal, read-out: Tmax",0.08 h
same,Vd,"[1]; male, ICR, mouse, plasma, iv, 2 mg/kg, ICR mice, IV 2 mg/kg, individual animal",0.85 L/kg
same,AUC(0-inf),[1]; [5],4410 ng·h/mL
same,clearance,[1]; [5],8.57 mL/min/kg
same,AUC(0-t),[1]; [6],4350 ng·h/mL
same,Cmax,[1]; [7],3260 ng/mL
same,MRT last,[1]; [5],1.47 h
same,MRT inf,[1]; [5],1.66 h
same,Tmax,[1]; [8],0.083 h
same,Vd,[1]; [5],1.07 L/kg
same,half-life,[1]; [9],1.79 h
same,MRT last,[1]; [10],1.66 h
same,MRT inf,[1]; [10],2.15 h
same,Tmax,"[1]; male, ICR, mouse, plasma, po, 5 mg/kg, ICR mice, PO 5 mg/kg, individual animal, read-out: Tmax",0.25 h
same,half-life,"[1]; male, ICR, mouse, plasma, po, 5 mg/kg, ICR mice, PO 5 mg/kg, individual animal, read-out: t1/2 (converted)",1.69 h
same,AUC(0-inf),[1]; [11],9760 ng·h/mL
same,AUC(0-t),[1]; [12],8780 ng·h/mL
same,Cmax,[1]; [13],3850 ng/mL
same,MRT last,[1]; [11],2.13 h
same,MRT inf,[1]; [11],2.91 h
same,Tmax,[1]; [14],0.42 h
same,half-life,[1]; [15],2.11 h
same,AUC(0-t),[1]; [16],8780 ng·h/mL
same,half-life,"[1]; male, ICR, mouse, plasma, po, 5 mg/kg, oral intragastric administration 5 mg/kg, read-out: half-life (converted)",2.11 h
same,bioavailability,"[1]; male, mouse, plasma, ICR mice, PO 5 mg/kg vs IV 2 mg/kg, from mean values, read-out: F* (bioavailability)",80.8%
same,IC50,[2],25.3 nM
"COc1nc(C2CC2)ncc1-c1nc2c(n1C(C)C)[C@@]1(C(=O)Nc3cc(Cl)ccc31)N(c1cc(Cl)cnc1C)C2=O [Example S-159, (S)-6-chloro-5′-(5-chloro-2-methylpyridin-3-yl)-2′-(2-cyclopropyl-4-methoxypyrimidin-5-yl)-3′-isopropyl-3′H-spiro[dihydroindole-3,4′-pyrrolo[3,4-d]imidazole]-2,6′(5′H)-dione]",IC50,MDM2,2.8 nM
same,AUC(0-t),[1]; [17],4456.51 ng·h/mL and 4501.92 ng·h/mL
same,Cmax,[1]; [17],2591.90 ng/mL and 2457.53 ng/mL
same,MRT(0-t),[1]; [17],1.45 h and 1.52 h
same,MRT(0-∞),[1]; [17],2.00 h and 2.19 h
same,Vz,[1]; [17],1.05 L/kg
same,t1/2,[1]; [17],1.75 h
same,F*,"[1]; ICR mice, PO 5 mg/kg vs IV 2 mg/kg, mean",52.53%
same,AUC(0-t),[1]; [18],5902.77 ng·h/mL and 6839.45 ng·h/mL
same,AUC(0-∞),[1]; [18],6003.28 ng·h/mL and 7052.50 ng·h/mL
same,Cmax,[1]; [18],1853.01 ng/mL and 1794.96 ng/mL
same,MRT(0-t),[1]; [18],2.27 h and 2.45 h
same,MRT(0-∞),[1]; [18],2.40 h and 2.68 h
same,t1/2,[1]; [18],1.28 h and 1.47 h
same,AUC(0-inf),[1]; [19],3720 ng·h/mL
same,clearance,[1]; [19],17.9 mL/min/kg
same,AUC(0-t),"[1]; male, ICR, mouse, plasma, iv, 2 mg/kg, ICR mice, IV 2 mg/kg, individual animals 301-303, read-out: AUC(0-t)",3600 ng·h/mL
same,Cmax,"[1]; male, ICR, mouse, plasma, iv, 2 mg/kg, ICR mice, IV 2 mg/kg, individual animals 301-303, read-out: Cmax",2540 ng/mL
same,MRT last,[1]; [19],1.23 h
same,MRT inf,[1]; [19],1.45 h
same,Tmax,"[1]; male, ICR, mouse, plasma, iv, 2 mg/kg, ICR mice, IV 2 mg/kg, individual animals 301-303, read-out: Tmax",0.08 h
same,Vd,[1]; [19],0.95 L/kg
same,half-life,"[1]; male, ICR, mouse, plasma, iv, 2 mg/kg, ICR mice, IV 2 mg/kg, individual animals 301-303, read-out: t1/2 (converted)",1.22 h
same,AUC(0-inf),[1]; [5],4500 ng·h/mL
same,clearance,[1]; [5],15.1 mL/min/kg
same,AUC(0-t),[1]; [6],4180 ng·h/mL
same,Cmax,[1]; [7],2530 ng/mL
same,MRT last,[1]; [5],1.4 h
same,MRT inf,[1]; [5],1.88 h
same,Tmax,[1]; [8],0.083 h
same,Vd,[1]; [5],1.02 L/kg
same,half-life,[1]; [9],1.61 h
same,AUC(0-inf),[1]; [20],3770 ng·h/mL
same,AUC(0-t),"[1]; male, ICR, mouse, plasma, po, 5 mg/kg, ICR mice, PO 5 mg/kg, individual animals 401-403, read-out: AUC(0-t)",3740 ng·h/mL
same,Cmax,"[1]; male, ICR, mouse, plasma, po, 5 mg/kg, ICR mice, PO 5 mg/kg, individual animals 401-403, read-out: Cmax",1440 ng/mL
same,MRT last,[1]; [20],1.9 h
same,MRT inf,[1]; [20],1.95 h
same,Tmax,"[1]; male, ICR, mouse, plasma, po, 5 mg/kg, ICR mice, PO 5 mg/kg, individual animals 401-403, read-out: Tmax",1 h
same,half-life,"[1]; male, ICR, mouse, plasma, po, 5 mg/kg, ICR mice, PO 5 mg/kg, individual animals 401-403, read-out: t1/2 (converted)",1.03 h
same,AUC(0-inf),[1]; [11],5610 ng·h/mL
same,AUC(0-t),[1]; [12],5500 ng·h/mL
same,Cmax,[1]; [13],1700 ng/mL
same,MRT last,[1]; [11],2.21 h
same,MRT inf,[1]; [11],2.34 h
same,Tmax,[1]; [14],1 h
same,half-life,[1]; [15],1.26 h
same,AUC(0-t),[1]; [16],5500 ng·h/mL
same,IC50,[2],34.2 nM
